From patent US11759455B2, “Substituted 1H-imidazo[4,5-b]pyridin-2(3H)-ones and their use as GLUN2B receptor modulators” (JANSSEN PHARMACEUTICA NV, priority 2016, dated 2023)
Like-named read-outs stand apart in the source and are kept apart here.

Biological target: T1, human GluN1/GluN2B NMDA receptors (Homo sapiens, UniProt Q13224)
T1 construct: expressed in transfected cells
Experiment: Cell-based calcium flux (FLIPR) assay on cloned human NR1/NR2B ion channels expressed in mammalian cells (standard and HTS buffer variants);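 note: stable Tet-On inducible cell line, Ca2+ influx triggered by glutamate at about EC40 plus 10 µM glycine, fluorescent dye read-out over 5 min, normalized to control wells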

[1] = standard assay buffer (0.5 mM MgCl2 dye loading; 137 mM NaCl, 4 mM KCl assay buffer), human GluN1/GluN2B cells, read-out: NR2B IC50 (μM) standard assay
[2] = standard assay buffer (0.5 mM MgCl2 in dye loading buffer; 137 mM NaCl, 4 mM KCl in assay buffer), human GluN1/GluN2B, read-out: NR2B IC50 (μM) standard assay
[3] = HTS assay buffer (1.5 mM MgCl2 in dye loading buffer; 150 mM NaCl, 3 mM KCl in assay buffer), human GluN1/GluN2B, read-out: NR2B IC50 (μM) HTS assay

T1 sequence (Q13224 27-1484, other chains not shown): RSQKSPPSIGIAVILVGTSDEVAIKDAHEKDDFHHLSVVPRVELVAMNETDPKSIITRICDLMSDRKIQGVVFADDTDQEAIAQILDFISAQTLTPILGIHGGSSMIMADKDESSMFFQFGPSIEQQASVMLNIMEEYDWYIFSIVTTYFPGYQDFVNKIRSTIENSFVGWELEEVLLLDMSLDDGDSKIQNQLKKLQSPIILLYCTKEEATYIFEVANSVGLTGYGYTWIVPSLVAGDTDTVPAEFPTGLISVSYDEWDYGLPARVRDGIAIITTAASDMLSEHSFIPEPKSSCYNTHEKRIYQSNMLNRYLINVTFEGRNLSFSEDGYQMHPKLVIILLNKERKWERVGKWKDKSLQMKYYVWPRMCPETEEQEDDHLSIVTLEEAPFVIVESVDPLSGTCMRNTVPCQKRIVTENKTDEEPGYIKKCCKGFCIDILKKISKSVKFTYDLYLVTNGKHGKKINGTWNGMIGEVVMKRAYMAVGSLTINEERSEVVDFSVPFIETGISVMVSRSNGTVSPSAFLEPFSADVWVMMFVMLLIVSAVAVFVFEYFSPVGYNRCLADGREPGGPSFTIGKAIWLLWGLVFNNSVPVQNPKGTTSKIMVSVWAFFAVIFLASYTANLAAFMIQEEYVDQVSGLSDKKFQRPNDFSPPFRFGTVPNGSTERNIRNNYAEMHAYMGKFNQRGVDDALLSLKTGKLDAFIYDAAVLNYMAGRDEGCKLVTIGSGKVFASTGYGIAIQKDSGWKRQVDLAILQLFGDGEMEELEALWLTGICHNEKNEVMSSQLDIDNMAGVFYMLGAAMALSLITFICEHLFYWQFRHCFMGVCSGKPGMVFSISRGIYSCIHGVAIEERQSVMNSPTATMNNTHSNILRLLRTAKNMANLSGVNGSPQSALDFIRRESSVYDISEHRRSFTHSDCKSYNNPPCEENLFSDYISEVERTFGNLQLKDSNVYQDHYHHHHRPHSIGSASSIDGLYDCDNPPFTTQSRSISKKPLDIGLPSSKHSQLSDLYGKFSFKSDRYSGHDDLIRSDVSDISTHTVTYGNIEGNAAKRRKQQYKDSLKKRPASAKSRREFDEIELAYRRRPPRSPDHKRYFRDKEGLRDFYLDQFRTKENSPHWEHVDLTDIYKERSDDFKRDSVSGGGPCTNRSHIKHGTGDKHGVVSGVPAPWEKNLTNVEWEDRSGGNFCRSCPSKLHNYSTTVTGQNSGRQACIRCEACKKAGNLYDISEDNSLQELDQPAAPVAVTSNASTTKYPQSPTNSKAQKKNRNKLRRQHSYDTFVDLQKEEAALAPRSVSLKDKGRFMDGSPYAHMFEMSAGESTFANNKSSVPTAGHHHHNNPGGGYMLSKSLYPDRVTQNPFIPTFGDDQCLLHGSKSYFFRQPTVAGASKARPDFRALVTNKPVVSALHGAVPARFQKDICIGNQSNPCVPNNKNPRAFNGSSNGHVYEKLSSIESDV

SMILES | IC50 [1] [µM] | IC50 [2] [µM] | further results
O=c1[nH]c2ncc(-c3cccc(C(F)(F)F)c3)cc2n1CCN1CCC1 [Example 17, 1-[2-(Azetidin-1-yl)ethyl]-6-[3-(trifluoromethyl)phenyl]-3H-imidazo[4,5-b]pyridin-2-one] | 0.146 |  | 
O=C(Cn1c(=O)[nH]c2ncc(-c3cccc(C(F)(F)F)c3)cc21)Nc1ccccn1 [Example 208, 2-[2-Oxo-6-[3-(trifluoromethyl)phenyl]-3H-imidazo[4,5-b]pyridin-1-yl]-N-(2-pyridyl)acetamide] | > 10 |  | 
Cc1c(-c2cnc3[nH]c(=O)n(CC(=O)N4CCC4)c3c2)cccc1C(F)(F)F [Example 329, 1-[2-(Azetidin-1-yl)-2-oxo-ethyl]-6-[2-methyl-3-(trifluoromethyl)phenyl]-3H-imidazo[4,5-b]pyridin-2-one] |  | 0.75 | 
Cn1c(=O)n(CC(=O)N2CCC2)c2cc(-c3csc(C(F)(F)F)c3)cnc21 [Example 104, 1-[2-(Azetidin-1-yl)-2-oxo-ethyl]-3-methyl-6-[5-(trifluoromethyl)-3-thienyl]imidazo[4,5-b]pyridin-2-one] | 0.048 |  | 
Cc1cc(-c2cnc3[nH]c(=O)n(CC(=O)N4CCC4)c3c2)sc1Cl [Example 324, 1-[2-(Azetidin-1-yl)-2-oxo-ethyl]-6-(5-chloro-4-methyl-2-thienyl)-3H-imidazo[4,5-b]pyridin-2-one] |  | 0.015 | 
Cn1c(=O)n(CC(=O)N2CCC2)c2cc(-c3csc(C(F)F)c3)cnc21 [Example 98, 1-[2-(Azetidin-1-yl)-2-oxo-ethyl]-6-[5-(difluoromethyl)-3-thienyl]-3-methyl-imidazo[4,5-b]pyridin-2-one] | 0.013 |  | 
Cc1cncc(Cn2c(=O)[nH]c3ncc(-c4cc(F)c(F)c(F)c4)cc32)c1 [Example 308, 1-[(5-Methyl-3-pyridyl)methyl]-6-(3,4,5-trifluorophenyl)-3H-imidazo[4,5-b]pyridin-2-one] | 0.03 |  | 
Cc1noc(C)c1Cn1c(=O)[nH]c2ncc(-c3cccc(C#N)c3)cc21 [Example 513, 3-[1-[(3,5-Dimethylisoxazol-4-yl)methyl]-2-oxo-3H-imidazo[4,5-b]pyridin-6-yl]benzonitrile] |  |  | IC50 [3]: > 29 µM
Cn1c(=O)n(CC(=O)N2CC(F)C2)c2cc(-c3ccsc3C(F)(F)F)cnc21 [Example 92, 1-[2-(3-Fluoroazetidin-1-yl)-2-oxo-ethyl]-3-methyl-6-[2-(trifluoromethyl)-3-thienyl]imidazo[4,5-b]pyridin-2-one] | 0.249 |  | 
NC(=O)Cn1c(=O)[nH]c2ncc(-c3cccc(C(F)(F)F)c3)cc21 [Example 432, 2-[2-Oxo-6-[3-(trifluoromethyl)phenyl]-3H-imidazo[4,5-b]pyridin-1-yl]acetamide] |  | 0.962 | 
Cc1cncc(Cn2c(=O)[nH]c3ncc(-c4ccc(F)c(F)c4)cc32)c1 [Example 272, 6-(3,4-Difluorophenyl)-1-[(5-methyl-3-pyridyl)methyl]-3H-imidazo[4,5-b]pyridin-2-one] | 0.034 |  | 
N#Cc1cccc(Cn2c(=O)[nH]c3ncc(-c4ccc(F)c(Cl)c4)cc32)c1 [Example 480, 3-[[6-(3-Chloro-4-fluoro-phenyl)-2-oxo-3H-imidazo[4,5-b]pyridin-1-yl]methyl]benzonitrile] |  |  | IC50 [3]: 4.22 µM
Cc1cc(F)cc(-c2cnc3c(c2)n(Cc2cccnn2)c(=O)n3C)c1 [Example 381, 6-(3-Fluoro-5-methyl-phenyl)-3-methyl-1-(pyridazin-3-ylmethyl)imidazo[4,5-b]pyridin-2-one] |  | 0.037 | 
O=C(Cn1c(=O)[nH]c2ncc(-c3cccc(C(F)(F)F)c3)cc21)C1CC1 [Example 239, 1-(2-Cyclopropyl-2-oxo-ethyl)-6-[3-(trifluoromethyl)phenyl]-3H-imidazo[4,5-b]pyridin-2-one] | 0.034 |  | 
Cc1cccnc1Cn1c(=O)[nH]c2ncc(-c3ccc(F)c(F)c3)cc21 [Example 284, 6-(3,4-Difluorophenyl)-1-[(3-methyl-2-pyridyl)methyl]-3H-imidazo[4,5-b]pyridin-2-one] | > 10 |  | 
CCC(=O)Cn1c(=O)[nH]c2ncc(-c3cccc(C)c3)cc21 [Example 332, 6-(m-Tolyl)-1-(2-oxobutyl)-3H-imidazo[4,5-b]pyridin-2-one] |  | 0.036 | 
CN(C)C(=O)Cn1c(=O)n(C)c2ncc(-c3ccc(Cl)s3)cc21 [Example 9, 2-[6-(5-Chloro-2-thienyl)-3-methyl-2-oxo-imidazo[4,5-b]pyridin-1-yl]-N,N-dimethyl-acetamide] | 0.005 |  | 
COc1cc(F)ccc1-c1cnc2[nH]c(=O)n(CC(=O)NC3CC3)c2c1 [Example 452, N-Cyclopropyl-2-[6-(4-fluoro-2-methoxy-phenyl)-2-oxo-3H-imidazo[4,5-b]pyridin-1-yl]acetamide] |  |  | IC50 [3]: 0.071 µM
COc1cc(Cn2c(=O)[nH]c3ncc(-c4cccc(C(F)(F)F)c4)cc32)cc(OC)c1 [Example 510, 1-[(3,5-Dimethoxyphenyl)methyl]-6-[3-(trifluoromethyl)phenyl]-3H-imidazo[4,5-b]pyridin-2-one] |  |  | IC50 [3]: 17.4 µM
O=C(Cn1c(=O)[nH]c2ncc(-c3cccc(C(F)(F)F)c3)cc21)N1CC(F)(F)C1 [Example 194, 1-[2-(3,3-Difluoroazetidin-1-yl)-2-oxo-ethyl]-6-[3-(trifluoromethyl)phenyl]-3H-imidazo[4,5-b]pyridin-2-one] | 0.047 |  | 
Cn1c(=O)n(Cc2cccnn2)c2cc(-c3cc(F)c(F)c(C(F)(F)F)c3)cnc21 [Example 387, 6-[3,4-Difluoro-5-(trifluoromethyl)phenyl]-3-methyl-1-(pyridazin-3-ylmethyl)imidazo[4,5-b]pyridin-2-one] |  | 0.022 | 
COc1ccc(-c2cnc3[nH]c(=O)n(CC4CC4)c3c2)cc1C [Example 468, 1-(Cyclopropylmethyl)-6-(4-methoxy-3-methyl-phenyl)-3H-imidazo[4,5-b]pyridin-2-one] |  |  | IC50 [3]: 4.17 µM
CCC(=O)Cn1c(=O)n(C)c2ncc(-c3cccc(C4CC4)c3)cc21 [Example 392, 6-(3-Cyclopropylphenyl)-3-methyl-1-(2-oxobutyl)imidazo[4,5-b]pyridin-2-one] |  | 0.324 | 

Second part, led by results:

IC50 [1] [µM] | IC50 [2] [µM] | SMILES | further results
 | 0.354 | Cn1cc(Cn2c(=O)n(C)c3ncc(-c4ccc(C(F)F)s4)cc32)cn1 [Example 561, 6-[5-(Difluoromethyl)-2-thienyl]-3-methyl-1-[(1-methylpyrazol-4-yl)methyl]imidazo[4,5-b]pyridin-2-one] | 
 | 0.671 | Cc1noc(Cn2c(=O)n(C)c3ncc(-c4ccc(C)s4)cc32)n1 [Example 557, 3-Methyl-1-[(3-methyl-1,2,4-oxadiazol-5-yl)methyl]-6-(5-methyl-2-thienyl)imidazo[4,5-b]pyridin-2-one] | 
 | 0.163 | O=C(Cn1c(=O)[nH]c2ncc(-c3cccc(C(F)(F)F)c3)cc21)N1CC(CCF)C1 [Example 536, 1-[2-[3-(2-Fluoroethyl)azetidin-1-yl]-2-oxo-ethyl]-6-[3-(trifluoromethyl)phenyl]-3H-imidazo[4,5-b]pyridin-2-one] | 
 | 0.116 | COCCNC(=O)Cn1c(=O)[nH]c2ncc(-c3ccc(F)c(Cl)c3)cc21 [Example 612, 2-[6-(3-Chloro-4-fluoro-phenyl)-2-oxo-3H-imidazo[4,5-b]pyridin-1-yl]-N-(2-methoxyethyl)acetamide] | 
 | 1.39 | CCOc1ccccc1-c1cnc2[nH]c(=O)n(Cc3ccccc3C#N)c2c1 [Example 484, 2-[[6-(2-Ethoxyphenyl)-2-oxo-3H-imidazo[4,5-b]pyridin-1-yl]methyl]benzonitrile] | 
